Laboratory results published in the NIST ThermoML archive (doi:10.1016/j.fluid.2017.06.019).

Details: Coaxial cylinder method

CCC [propane]
thermal conductivity [W/m/K]
Details	368.46 K	369.12 K
3948 kPa, Gas	–	0.04135
3960 kPa, Gas	–	0.0417
4020 kPa, Gas	–	0.04343
4040 kPa, Gas	–	0.04417
4115 kPa, Gas	–	0.0486
4120 kPa, Gas	–	0.04907
4125 kPa, Gas	–	0.04956
4130 kPa, Gas	–	0.05011
4135 kPa, Gas	–	0.05071
4140 kPa, Gas	–	0.05135
4145 kPa, Gas	–	0.05207
4150 kPa, Gas	–	0.0529
4154 kPa, Gas	–	0.05366
4156 kPa, Gas	–	0.05402
4158 kPa, Gas	–	0.05445
4160 kPa, Gas	–	0.05488
4162 kPa, Gas	–	0.0554
4164 kPa, Gas	–	0.05743
4166 kPa, Gas	–	0.06032
4166 kPa, Liquid	0.1166	–
4167 kPa, Liquid	0.1142	–
4168 kPa, Gas	–	0.0639
4168 kPa, Liquid	0.112	–
4169 kPa, Liquid	0.1098	–
4170 kPa, Gas	–	0.06861
4170 kPa, Liquid	0.1079	–
4171 kPa, Liquid	0.1059	–
4172 kPa, Gas	–	0.07431
4172 kPa, Liquid	0.1041	–
4173 kPa, Liquid	0.1023	–
4174 kPa, Liquid	0.1007	–
4175 kPa, Liquid	0.09915	–
4176 kPa, Liquid	0.09767	–
4177 kPa, Liquid	0.09622	–
4178 kPa, Liquid	0.09487	–
4179 kPa, Liquid	0.09359	–
4180 kPa, Gas	–	0.113
4180 kPa, Liquid	0.0923	–
4181 kPa, Liquid	0.09113	–
4182 kPa, Gas	–	0.127
4182 kPa, Liquid	0.09007	–
4183 kPa, Liquid	0.08899	–
4184 kPa, Gas	–	0.1426
4184 kPa, Liquid	0.08793	–
4185 kPa, Liquid	0.08689	–
4186 kPa, Gas	–	0.1588
4186 kPa, Liquid	0.08599	–
4187 kPa, Liquid	0.08507	–
4188 kPa, Gas	–	0.179
4188 kPa, Liquid	0.08424	–
4189 kPa, Liquid	0.08337	–
4190 kPa, Gas	–	0.1956
4190 kPa, Liquid	0.08257	–
4191 kPa, Liquid	0.08179	–
4192 kPa, Gas	–	0.2155
4192 kPa, Liquid	0.08112	–
4193 kPa, Liquid	0.08042	–
4194 kPa, Liquid	0.07971	0.2155
4195 kPa, Liquid	0.0791	–
4196 kPa, Liquid	0.0785	0.1917
4197 kPa, Liquid	0.07791	–
4198 kPa, Liquid	0.07733	0.1741
4199 kPa, Liquid	0.07676	–
4200 kPa, Liquid	0.07619	0.1606
4201 kPa, Liquid	0.07577	–
4202 kPa, Liquid	0.07536	0.1497
4203 kPa, Liquid	0.07481	–
4204 kPa, Liquid	0.07441	0.1407
4205 kPa, Liquid	0.07401	–
4206 kPa, Liquid	0.07348	0.1335
4207 kPa, Liquid	0.07318	–
4208 kPa, Liquid	0.07282	0.1259
4209 kPa, Liquid	0.07244	–
4210 kPa, Liquid	0.07206	0.1185
4211 kPa, Liquid	0.07181	–
4212 kPa, Liquid	0.07151	0.1121
4213 kPa, Liquid	0.07116	0.1093
4214 kPa, Liquid	0.07087	–
4215 kPa, Liquid	0.07063	0.1035
4216 kPa, Liquid	0.07039	–
4217 kPa, Liquid	0.0701	–
4218 kPa, Liquid	0.06986	–
4219 kPa, Liquid	0.06962	–
4220 kPa, Liquid	0.06939	–
4221 kPa, Liquid	0.0692	–
4222 kPa, Liquid	0.06897	–
4223 kPa, Liquid	0.06874	–
4224 kPa, Liquid	0.0686	–
4225 kPa, Liquid	0.0684	–
4226 kPa, Liquid	0.06824	–
4227 kPa, Liquid	0.06804	–
4228 kPa, Liquid	0.0679	0.08399
4229 kPa, Liquid	0.06777	–
4230 kPa, Liquid	0.06761	0.08176
4231 kPa, Liquid	0.06749	–
4232 kPa, Liquid	0.06733	0.07987
4233 kPa, Liquid	0.06722	–
4234 kPa, Liquid	0.06709	0.07806
4235 kPa, Liquid	0.06698	–
4236 kPa, Liquid	0.06684	0.07633
4237 kPa, Liquid	0.06677	–
4238 kPa, Liquid	0.06652	0.07491
4239 kPa, Liquid	0.06652	–
4240 kPa, Liquid	0.06647	0.07344
4241 kPa, Liquid	0.06643	–
4242 kPa, Liquid	0.06641	–
4244 kPa, Liquid	0.06637	–
4246 kPa, Liquid	0.0663	–
4248 kPa, Liquid	0.06624	–
4250 kPa, Liquid	0.06619	–
4252 kPa, Liquid	0.06614	–
4254 kPa, Liquid	0.06611	–
4256 kPa, Liquid	0.06607	–
4258 kPa, Liquid	0.066	–
4260 kPa, Liquid	0.06598	0.06913
4262 kPa, Liquid	0.06591	–
4264 kPa, Liquid	0.06587	–
4266 kPa, Liquid	0.06583	–
4268 kPa, Liquid	0.06578	–
4270 kPa, Liquid	0.06574	–
4272 kPa, Liquid	0.06572	–
4274 kPa, Liquid	0.06568	–
4276 kPa, Liquid	0.06564	–
4278 kPa, Liquid	0.06564	–
4280 kPa, Liquid	0.06559	0.06803
4282 kPa, Liquid	0.06555	–
4284 kPa, Liquid	0.0655	–
4286 kPa, Liquid	0.0655	–
4288 kPa, Liquid	0.06543	–
4290 kPa, Liquid	0.06539	–
4292 kPa, Liquid	0.06535	–
4294 kPa, Liquid	0.06533	–
4296 kPa, Liquid	0.06529	–
4298 kPa, Liquid	0.06529	–
4300 kPa, Liquid	0.06527	0.06726
4302 kPa, Liquid	0.06525	–
4304 kPa, Liquid	0.06521	–
4306 kPa, Liquid	0.06516	–
4308 kPa, Liquid	0.06514	–
4310 kPa, Liquid	0.06514	–
4312 kPa, Liquid	0.0651	–
4314 kPa, Liquid	0.06505	–
4316 kPa, Liquid	0.06503	–
4318 kPa, Liquid	0.06501	–
4320 kPa, Liquid	0.06499	0.06665
4322 kPa, Liquid	0.06499	–
4324 kPa, Liquid	0.06497	–
4326 kPa, Liquid	0.06493	–
4328 kPa, Liquid	0.06493	–
4330 kPa, Liquid	0.06489	–
4332 kPa, Liquid	0.06487	–
4334 kPa, Liquid	0.06484	–
4336 kPa, Liquid	0.06484	–
4338 kPa, Liquid	0.06482	–
4340 kPa, Liquid	0.06482	0.06616
4345 kPa, Liquid	0.06476	–
4350 kPa, Liquid	0.06472	–
4355 kPa, Liquid	0.06468	–
4360 kPa, Liquid	0.06461	–
4365 kPa, Liquid	0.06458	–
4368 kPa, Liquid	0.06458	–
4375 kPa, Liquid	0.06454	–
4380 kPa, Liquid	0.0645	0.06546
4385 kPa, Liquid	0.06446	–
4390 kPa, Liquid	0.06443	–
4400 kPa, Liquid	0.06439	0.06519
4450 kPa, Liquid	0.06421	–
4500 kPa, Liquid	0.06413	–
4550 kPa, Liquid	0.06411	–
4600 kPa, Liquid	0.06411	–
4650 kPa, Liquid	0.06421	–
4700 kPa, Liquid	0.06427	–
4750 kPa, Liquid	0.06439	–
4800 kPa, Liquid	0.06451	–
4900 kPa, Liquid	0.06477	–
4960 kPa, Liquid	0.06496	–
4965 kPa, Liquid	0.065	–
4967 kPa, Liquid	0.065	–
5000 kPa, Liquid	0.06509	–
5100 kPa, Liquid	0.06542	–
5200 kPa, Liquid	0.06573	–
5300 kPa, Liquid	0.06605	–
5400 kPa, Liquid	0.06646	–
5500 kPa, Liquid	0.06674	–
5600 kPa, Liquid	0.06707	–
5700 kPa, Liquid	0.06732	–
5800 kPa, Liquid	0.06767	–
5900 kPa, Liquid	0.06794	–
6010 kPa, Liquid	0.06831	–
6020 kPa, Liquid	0.06831	–
6200 kPa, Liquid	0.06884	–
6210 kPa, Liquid	0.06886	–
8500 kPa, Liquid	–	0.0737
9020 kPa, Liquid	–	0.07453
10028 kPa, Liquid	–	0.07577
14772 kPa, Liquid	–	0.08097
